{"source": "patent US20230151065A1", "about": "“MULTI-DISULFIDE-BOND LONG-CHAIN PEPTIDE WITH NEURO[…], PHARMACEUTICAL COMPOSITION AND APPLICATION” (priority 2018, published 2023)", "type_in_all_cases": "cell-based", "key": {"[1]": {"test_system": "primary cultured SD fetal rat cortical neurons after OGD damage", "assay": "OGD damage of cortical neurons, Hoechst 33258 staining of apoptotic bodies", "settings": "OGD 2 h, 24 h reoxygenation; ABPPk2 8, 40, 200 ng/ml, dose-dependent; BDNF 10 ng/ml", "procedure": "(§1) The suspension was filtered with a 400-mesh screen, centrifuged at 1000 rpm for 5 min, and blown to form the single cell suspension. DMEM high glucose complete medium (containing 10% fetal bovine serum) was inoculated in a culture dish or culture plate pre-coated with polylysine (PLL) to culture in 5% CO2 incubator with saturated humidity at 37° C. After the cells were cultured for 4 h to adhere to the wall, the cells were cultured with neuron culture medium (neurobasal+2% B27) for 3 d to observe the growth of neurons. The culture medium containing cytarabine (the final concentration of cytarabine was 2.5 μg/ml) was substituted with half quantity to culture for 3d to inhibit the growth of glial cells and miscellaneous cells to obtain purely cultured primary cortical nerve cells. The purity of the cortical neurons was identified by immunocytochemical staining as more than 90%.\nAfter the cortical neurons were cultured to the 7th day, the original culture medium was sucked out, and the cells were rinsed twice with sugar-free DMEM basal medium, for 5 min each time. Each OGD damage group was added with DMEM sugar-free culture medium, placed in a Billups-Rothenberg anaerobic culture chamber, filled with 95% N2/5% CO2 to balance for 15 min, and sealed for 2 h to build an OGD model. […]"}, "[2]": {"test_system": "primary cultured SD fetal rat cortical neurons after OGD damage", "assay": "OGD damage of cortical neurons, CCK-8 activity", "settings": "OGD 2 h, 24 h reoxygenation; ABPPk2 8, 40, 200 ng/ml; effect more obvious as dose increased", "procedure": "as §1\nAfter the cortical neurons were cultured to the 7th day, the original culture medium was sucked out, and the cells were rinsed twice with sugar-free DMEM basal medium, for 5 min each time. […]\nAnalysis of cortical neuron activity after OGD damage and drug treatment: cortical neurons were inoculated into 96-well plates at 1×10^6 cells/ml; and 100 μl cell suspension was added to each well. […] The absorbance (OD) value of the sample in each well was measured on the microplate reader at 450 nm wavelength. […]"}, "[3]": {"test_system": "primary fetal rat hippocampal neurons", "assay": "Growth of hippocampal neurons, label-free real time cell analysis (RTCA)", "settings": "ABPPk2 4, 20, 100 ng/ml", "procedure": "(1) Primary culture of fetal rat hippocampal neurons: after a rat pregnant for 17 days was anesthetized, a fetal rat was taken out under sterile conditions; the brain of the fetal rat was taken out on ice; the hippocampus was carefully taken out under a dissecting microscope; and the blood vessel membranes were removed. 0.125% trypsin/EDTA was digested at 37° C. for 10 min, and the digestion was stopped by adding the DMEM complete medium containing 10% FBS. Cell debris were removed through centrifugal at 1000 rpm for 5 min; the DMEM complete medium was added to resuspend the cells; the cells were gently blown until a single cell suspension was formed; and the cells were inoculated at an appropriate density on a culture plate (dish) pre-coated with polylysine (PLL) and cultured at 37° C., 5% CO2 incubator. After 4 h, the cells were adhered to the wall; the DMEM complete medium was discarded and replaced with neurobasal medium containing different concentrations of ABPPk2 (the concentrations of ABPPk2 were 4 ng/ml, 20 ng/ml and 100 ng/ml); the neurobasal medium containing 10 ng/ml BDNF was used as the positive control group, and neurobasal was used as the negative control group. […]"}}, "note": "Where no end group is shown, it is not given here."}
{"substance": "Cys-Leu-Glu-Ser-Gly-Thr-Ser-Cys-Ile-Pro-Gly-Ala-Gln-His-Asn-Cys-Cys-Ser-Gly-Val-Cys-Val-Pro-Ile-Val-Thr-Ile-Phe-Tyr-Gly-Val-Cys-Tyr (CLESGTSCIPGAQHNCCSGVCVPIVTIFYGVCY; disulfide (positions not given here); not fully specified (bridges); also: three disulfide bonds, pairing not given here) [ABPPk2, 33 amino acid polypeptide isolated from the extract of Achyranthes bidentata Blume, three pairs of disulfide bonds]", "values": [{"measurement": "apoptotic bodies of cortical neuron nuclei", "setting": "[1]", "value": "the apoptotic bodies of the cortical neuron nuclei were reduced"}, {"measurement": "cortical neuron activity (CCK-8)", "setting": "[2]", "value": "can effectively antagonize the decrease of cortical neuron activity caused by OGD damage"}, {"measurement": "growth of hippocampal neurons (cell index, RTCA)", "setting": "[3]", "value": "can promote the growth of the hippocampal neurons and the extension of neurites"}]}
